Assay results reported in the NIST ThermoML archive (doi:10.1021/acs.jced.6b00121).

Test: xn = mol fraction of the nth substance listed
Settings: 100 kPa, Liquid; for mass density: Vibrating tube method; for viscosity: Falling or rolling sphere viscometry

CCCCCCCCCCC [undecane] + CCCCCO
Settings | mass density [kg/m3] | viscosity [mPa·s]
323.15 K, x1 = 0.0999 | 778.15 | –
323.15 K, x1 = 0.2 | 766.37 | –
323.15 K, x1 = 0.3026 | 756.27 | –
323.15 K, x1 = 0.4001 | 748.09 | –
323.15 K, x1 = 0.5022 | 740.84 | –
323.15 K, x1 = 0.5976 | 734.98 | –
323.15 K, x1 = 0.6984 | 729.62 | –
323.15 K, x1 = 0.801 | 724.97 | –
323.15 K, x1 = 0.8822 | 721.69 | –
323.15 K, x1 = 1 | 718.11 | –
328.15 K, x1 = 0.0999 | 774.23 | 1.336
328.15 K, x1 = 0.2 | 762.42 | 1.142
328.15 K, x1 = 0.3026 | 752.3 | 0.989
328.15 K, x1 = 0.4001 | 744.13 | 0.895
328.15 K, x1 = 0.5022 | 736.88 | 0.828
328.15 K, x1 = 0.5976 | 731.04 | 0.776
328.15 K, x1 = 0.6984 | 725.7 | 0.742
328.15 K, x1 = 0.801 | 721.07 | 0.714
328.15 K, x1 = 0.8822 | 717.84 | 0.702
328.15 K, x1 = 1 | 714.39 | 0.692
333.15 K, x1 = 0.0999 | 770.26 | 1.2
333.15 K, x1 = 0.2 | 758.42 | 1.035
333.15 K, x1 = 0.3026 | 748.29 | 0.903
333.15 K, x1 = 0.4001 | 740.12 | 0.825
333.15 K, x1 = 0.5022 | 732.89 | 0.767
333.15 K, x1 = 0.5976 | 727.07 | 0.723
333.15 K, x1 = 0.6984 | 721.76 | 0.694
333.15 K, x1 = 0.801 | 717.15 | 0.67
333.15 K, x1 = 0.8822 | 713.96 | 0.659
333.15 K, x1 = 1 | 710.68 | 0.651
338.15 K, x1 = 0.0999 | 766.24 | 1.082
338.15 K, x1 = 0.2 | 754.37 | 0.94
338.15 K, x1 = 0.3026 | 744.23 | 0.827
338.15 K, x1 = 0.4001 | 736.07 | 0.763
338.15 K, x1 = 0.5022 | 728.86 | 0.714
338.15 K, x1 = 0.5976 | 723.06 | 0.675
338.15 K, x1 = 0.6984 | 717.77 | 0.652
338.15 K, x1 = 0.801 | 713.2 | 0.63
338.15 K, x1 = 0.8822 | 710.06 | 0.621
338.15 K, x1 = 1 | 706.95 | 0.615
343.15 K, x1 = 0.0999 | 762.15 | 0.979
343.15 K, x1 = 0.2 | 750.25 | 0.857
343.15 K, x1 = 0.3026 | 740.12 | 0.76
343.15 K, x1 = 0.4001 | 731.98 | 0.708
343.15 K, x1 = 0.5022 | 724.77 | 0.666
343.15 K, x1 = 0.5976 | 719 | 0.633
343.15 K, x1 = 0.6984 | 713.75 | 0.613
343.15 K, x1 = 0.801 | 709.22 | 0.594
343.15 K, x1 = 0.8822 | 706.13 | 0.587
343.15 K, x1 = 1 | 703.22 | 0.58
348.15 K, x1 = 0.0999 | 758.01 | 0.889
348.15 K, x1 = 0.2 | 746.09 | 0.784
348.15 K, x1 = 0.3026 | 735.95 | 0.701
348.15 K, x1 = 0.4001 | 727.83 | 0.659
348.15 K, x1 = 0.5022 | 720.65 | 0.624
348.15 K, x1 = 0.5976 | 714.91 | 0.595
348.15 K, x1 = 0.6984 | 709.7 | 0.578
348.15 K, x1 = 0.801 | 705.21 | 0.561
348.15 K, x1 = 0.8822 | 702.19 | 0.556
348.15 K, x1 = 1 | 699.47 | 0.549
353.15 K, x1 = 0.0999 | 753.8 | 0.81
353.15 K, x1 = 0.2 | 741.87 | 0.72
353.15 K, x1 = 0.3026 | 731.74 | 0.649
353.15 K, x1 = 0.4001 | 723.64 | 0.615
353.15 K, x1 = 0.5022 | 716.49 | 0.585
353.15 K, x1 = 0.5976 | 710.78 | 0.56
353.15 K, x1 = 0.6984 | 705.61 | 0.545
353.15 K, x1 = 0.801 | 701.17 | 0.531
353.15 K, x1 = 0.8822 | 698.22 | 0.528
353.15 K, x1 = 1 | 695.72 | 0.522
358.15 K, x1 = 0.0999 | 749.51 | 0.744
358.15 K, x1 = 0.2 | 737.58 | 0.663
358.15 K, x1 = 0.3026 | 727.46 | 0.602
358.15 K, x1 = 0.4001 | 719.38 | 0.577
358.15 K, x1 = 0.5022 | 712.26 | 0.551
358.15 K, x1 = 0.5976 | 706.59 | 0.528
358.15 K, x1 = 0.6984 | 701.47 | 0.517
358.15 K, x1 = 0.801 | 697.1 | 0.504
358.15 K, x1 = 0.8822 | 694.22 | 0.502
358.15 K, x1 = 1 | 691.96 | 0.497
363.15 K, x1 = 0.0999 | 745.17 | 0.68
363.15 K, x1 = 0.2 | 733.23 | 0.614
363.15 K, x1 = 0.3026 | 723.13 | 0.56
363.15 K, x1 = 0.4001 | 715.08 | 0.542
363.15 K, x1 = 0.5022 | 708 | 0.519
363.15 K, x1 = 0.5976 | 702.37 | 0.5
363.15 K, x1 = 0.6984 | 697.3 | 0.49
363.15 K, x1 = 0.801 | 692.99 | 0.48
363.15 K, x1 = 0.8822 | 690.22 | 0.48
363.15 K, x1 = 1 | 688.18 | 0.475
